Data published in patent US20250313548A1 (Actio Biosciences, Inc., priority 2023, published 2025).

Target: human, KCNT1 (Homo sapiens (Human), UniProt Q5JUK3)
Assay: FLIPR Tl/K Flux Assay
Format: cell-based
Details: HEK293 cells stably expressing human KCNT1; Tl+ flux stimulated with EC80 of agonist Loxapine
Method in brief: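 HEK293 cells stably expressing human KCNT1 were loaded with FLIPR potassium dye in HEPES/HBSS pH 7.4 with 5 mM probenecid, 1 h at 25 °C, then given test compound for 30 min at 25 °C. Tl+ flux was triggered with chloride-free buffer containing Tl+ and EC80 loxapine and read 160 s. IC50 came from Hill fits of % inhibition.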

Chain of human, KCNT1 (Q5JUK3 whole entry): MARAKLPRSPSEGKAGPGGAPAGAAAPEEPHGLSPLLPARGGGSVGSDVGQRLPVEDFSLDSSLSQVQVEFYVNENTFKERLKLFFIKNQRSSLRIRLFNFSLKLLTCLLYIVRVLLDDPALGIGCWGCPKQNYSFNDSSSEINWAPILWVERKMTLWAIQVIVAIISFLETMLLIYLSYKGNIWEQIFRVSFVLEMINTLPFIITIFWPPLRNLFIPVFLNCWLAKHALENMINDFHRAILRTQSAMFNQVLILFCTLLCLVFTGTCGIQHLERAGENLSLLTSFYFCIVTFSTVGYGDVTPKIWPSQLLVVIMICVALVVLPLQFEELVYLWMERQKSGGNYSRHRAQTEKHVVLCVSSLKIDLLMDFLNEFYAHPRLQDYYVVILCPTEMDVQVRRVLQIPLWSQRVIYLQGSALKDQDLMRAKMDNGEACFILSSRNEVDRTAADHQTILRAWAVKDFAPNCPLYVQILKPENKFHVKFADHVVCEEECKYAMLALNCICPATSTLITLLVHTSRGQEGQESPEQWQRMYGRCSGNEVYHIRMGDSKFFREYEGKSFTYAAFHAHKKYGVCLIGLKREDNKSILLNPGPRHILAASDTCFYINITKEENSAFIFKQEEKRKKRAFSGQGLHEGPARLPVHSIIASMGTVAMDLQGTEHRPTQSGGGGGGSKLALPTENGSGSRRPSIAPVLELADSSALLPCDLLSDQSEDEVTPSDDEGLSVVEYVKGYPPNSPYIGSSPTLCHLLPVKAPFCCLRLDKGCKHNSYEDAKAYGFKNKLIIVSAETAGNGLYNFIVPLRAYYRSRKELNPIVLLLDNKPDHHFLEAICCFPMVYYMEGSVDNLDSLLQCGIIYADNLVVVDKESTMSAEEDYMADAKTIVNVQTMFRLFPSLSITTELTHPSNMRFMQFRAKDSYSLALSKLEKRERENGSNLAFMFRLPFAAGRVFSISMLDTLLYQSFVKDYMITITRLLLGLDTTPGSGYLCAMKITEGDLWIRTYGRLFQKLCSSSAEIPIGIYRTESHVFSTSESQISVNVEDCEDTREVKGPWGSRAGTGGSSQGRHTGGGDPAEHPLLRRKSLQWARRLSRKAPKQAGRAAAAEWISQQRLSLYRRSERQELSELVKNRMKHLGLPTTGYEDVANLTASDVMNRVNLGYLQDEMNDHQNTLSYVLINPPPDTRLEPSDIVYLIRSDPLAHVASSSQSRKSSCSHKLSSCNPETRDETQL

Row | SMILES | IC50 [nM]
1 | COc1cc(-c2nc3c(o2)[C@@H](NC(=O)c2cccc(C(F)(F)F)c2)CCC3)c(F)cn1 [Compound I-177a, (S)-N-(2-(5-Fluoro-2-methoxypyridin-4-yl)-4,5,6,7-tetrahydrobenzo[d]oxazol-7-yl)-3-(trifluoromethyl)benzamide] | < 250
2 | Cc1cnc(C(F)(F)F)cc1-c1nc2c(o1)CCC[C@@H]2NC(=O)c1cc(C(F)(F)F)nn1C [Compound I-178a, (S)-1-Methyl-N-(2-(5-methyl-2-(trifluoromethyl)pyridin-4-yl)-4,5,6,7-tetrahydrobenzo[d]oxazol-4-yl)-3-(trifluoromethyl)-1H-pyrazole-5-carboxamide] | < 250
3 | O=C(N[C@H]1CCCn2nc(-c3cc(C(F)(F)F)ncc3Cl)cc21)c1ccnc(OC(F)(F)F)c1 [Compound I-179a, (S)-N-(2-(5-Chloro-2-(trifluoromethyl)pyridin-4-yl)-4,5,6,7-tetrahydropyrazolo[1,5-a]pyridin-4-yl)-2-(trifluoromethoxy)isonicotinamid] | < 250
4 | Cn1nc(C(F)(F)F)cc1C(=O)N[C@H]1CCCc2nc(-c3ccnc(C4CC4)c3)oc21 [Compound I-180a, (S)-N-(2-(2-Cyclopropylpyridin-4-yl)-4,5,6,7-tetrahydrobenzo[d]oxazol-7-yl)-1-methyl-3-(trifluoromethyl)-1H-pyrazole-5-carboxamide] | < 250
5 | Cc1cnc(C(F)(F)F)cc1-c1cc2n(n1)CCC[C@@H]2NC(=O)c1ccnc(OC(F)(F)F)c1 [Compound I-181a, (S)-N-(2-(5-Methyl-2-(trifluoromethyl)pyridin-4-yl)-4,5,6,7-tetrahydropyrazolo[1,5-a]pyridin-4-yl)-2-(trifluoromethoxy)isonicotinamide] | < 250
6 | O=C(N[C@H]1CCCn2nc(-c3cc(C(F)(F)F)ncc3F)nc21)c1cncc(C(F)(F)F)n1 [Compound I-182a, (S)-N-(2-(5-Fluoro-2-(trifluoromethyl)pyridin-4-yl)-5,6,7,8-tetrahydro-[1,2,4]triazolo[1,5-a]pyridin-8-yl)-6-(trifluoromethyl)pyrazine-2-carboxamide] | 500 to 1000
7 | COc1cc(-c2cc3n(n2)CCCC[C@@H]3NC(=O)c2cc(F)cc(C#N)c2)c(F)cn1 [Compound I-183a, (S)-3-Cyano-5-fluoro-N-(2-(5-fluoro-2-methoxypyridin-4-yl)-5,6,7,8-tetrahydro-4H-pyrazolo[1,5-a]azepin-4-yl)benzamide] | < 250
8 | O=C(N[C@H]1CCCc2nc(-c3ccnc(C(F)(F)F)c3)oc21)c1cncc(C(F)(F)F)n1 [Compound I-184a, (S)-6-(Trifluoromethyl)-N-(2-(2-(trifluoromethyl)pyridin-4-yl)-4,5,6,7-tetrahydrobenzo[d]oxazol-7-yl)pyrazine-2-carboxamide] | < 250
9 | O=C(N[C@H]1CCCc2nc(-c3ccnc(C(F)(F)F)c3)oc21)c1cc(Cl)cc(Cl)c1 [Compound I-185a, (S)-3,5-Dichloro-N-(2-(2-(trifluoromethyl)pyridin-4-yl)-4,5,6,7-tetrahydrobenzo[d]oxazol-7-yl)benzamide] | < 250
10 | O=C(N[C@H]1CCCc2nc(-c3ccnc(C(F)(F)F)c3)oc21)c1ccnc(OC(F)(F)F)c1 [Compound I-186a, (S)-2-(Trifluoromethoxy)-N-(2-(2-(trifluoromethyl)pyridin-4-yl)-4,5,6,7-tetrahydrobenzo[d]oxazol-7-yl)isonicotinamide] | < 250
11 | O=C(N[C@H]1CCCc2nc(-c3ccnc(C(F)(F)F)c3)oc21)c1cccc(OC(F)(F)F)c1 [Compound I-187a, (S)-3-(Trifluoromethoxy)-N-(2-(2-(trifluoromethyl)pyridin-4-yl)-4,5,6,7-tetrahydrobenzo[d]oxazol-7-yl)benzamide] | < 250
12 | O=C(N[C@H]1CCCc2nc(-c3ccnc(C(F)(F)F)c3)oc21)c1cccc(C(F)(F)F)c1 [Compound I-188a, (S)-3-(Trifluoromethyl)-N-(2-(2-(trifluoromethyl)pyridin-4-yl)-4,5,6,7-tetrahydrobenzo[d]oxazol-7-yl)benzamide] | < 250
13 | Cn1nc(C(F)(F)F)cc1C(=O)N[C@H]1CCCc2oc(-c3cc(C(F)(F)F)ncc3Cl)nc21 [Compound I-189a] | < 250
14 | Cn1nc(C(F)(F)F)cc1C(=O)N[C@H]1CCc2nn(-c3cc(C4CC4)ncc3F)cc21 [Compound I-190a, (S)-N-(2-(2-Cyclopropyl-5-fluoropyridin-4-yl)-2,4,5,6-tetrahydrocyclopenta[c]pyrazol-4-yl)-1-methyl-3-(trifluoromethyl)-1H-pyrazole-5-carboxamide] | < 250
15 | Cn1nc(C(F)(F)F)nc1C(=O)N[C@H]1CCCc2oc(-c3cc(C4CC4)ncc3F)nc21 [Compound I-191a, (S)—N-(2-(2-Cyclopropyl-5-fluoropyridin-4-yl)-4,5,6,7-tetrahydrobenzo[d]oxazol-4-yl)-1-methyl-3-(trifluoromethyl)-1H-1,2,4-triazole-5-carboxamide] | < 250
16 | Cc1nc(C(F)(F)F)oc1C(=O)N[C@H]1CCc2cnc(-c3ccnc(C(F)(F)F)c3)cc21 [Compound I-192a, (S)-4-Methyl-2-(trifluoromethyl)-N-(3-(2-(trifluoromethyl)pyridin-4-yl)-6,7-dihydro-5H-cyclopenta[c]pyridin-5-yl)oxazole-5-carboxamide] | 250 to 500
17 | O=C(N[C@H]1CCCn2nc(-c3ccnc(C4CC4)c3)cc21)c1ccnc(OC(F)(F)F)c1 [Compound I-193a, (S)-N-(2-(2-Cyclopropylpyridin-4-yl)-4,5,6,7-tetrahydropyrazolo[1,5-a]pyridin-4-yl)-2-(trifluoromethoxy)isonicotinamide] | < 250
18 | COc1cc(C(=O)N[C@H]2CCCCn3nc(-c4cc(C(F)(F)F)ncc4F)cc32)ccn1 [Compound I-194a, (S)-N-(2-(5-Fluoro-2-(trifluoromethyl)pyridin-4-yl)-5,6,7,8-tetrahydro-4H-pyrazolo[1,5-a]azepin-4-yl)-2-methoxyisonicotinamide] | < 250
19 | O=C(N[C@H]1CCCn2nc(-c3cc(C(F)(F)F)ncc3F)cc21)c1cnc2ccccc2n1 [Compound I-195a, (S)-N-(2-(5-Fluoro-2-(trifluoromethyl)pyridin-4-yl)-4,5,6,7-tetrahydropyrazolo[1,5-a]pyridin-4-yl)quinoxaline-2-carboxamide] | < 250
20 | COc1cc(C(=O)N[C@H]2CCc3cnc(-c4ccnc(C(F)(F)F)c4)cc32)ccn1 [Compound I-196a, (S)-2-Methoxy-N-(3-(2-(trifluoromethyl)pyridin-4-yl)-6,7-dihydro-5H-cyclopenta[c]pyridin-5-yl)isonicotinamide] | 500 to 1000
21 | O=C(N[C@H]1CCc2cnc(-c3ccnc(C(F)(F)F)c3)cc21)c1cncc(C(F)(F)F)n1 [Compound I-197a, (S)-6-(trifluoromethyl)-N-(3-(2-(trifluoromethyl)pyridin-4-yl)-6,7-dihydro-5H-cyclopenta[c]pyridin-5-yl)pyrazine-2-carboxamide] | > 1000
22 | O=C(N[C@H]1CCn2nc(-c3ccnc(C(F)(F)F)c3)cc21)c1ccnc(OC(F)(F)F)c1 [Compound I-198a, (S)-2-(Trifluoromethoxy)-N-(2-(2-(trifluoromethyl)pyridin-4-yl)-5,6-dihydro-4H-pyrrolo[1,2-b]pyrazol-4-yl)isonicotinamide] | < 250
23 | O=C(N[C@H]1CCCn2nc(-c3cc(C(F)(F)F)ncc3F)cc21)c1ccnc(OC(F)(F)F)c1 [Compound I-199a, (S)-N-(2-(5-Fluoro-2-(trifluoromethyl)pyridin-4-yl)-4,5,6,7-tetrahydropyrazolo[1,5-a]pyridin-4-yl)-2-(trifluoromethoxy)isonicotinamide] | < 250
24 | CCc1cc(C#N)cc(C(=O)N[C@H]2CCn3nc(-c4ccnc(C(F)(F)F)c4)cc32)c1 [Compound I-200a, (S)-3-Cyano-5-ethyl-N-(2-(2-(trifluoromethyl)pyridin-4-yl)-5,6-dihydro-4H-pyrrolo[1,2-b]pyrazol-4-yl)benzamide] | < 250
25 | Cn1nc(C(F)(F)F)cc1C(=O)N[C@H]1CCCn2nc(-c3ccnc(C4CC4)c3)nc21 [Compound I-201a, (S)—N-(2-(2-Cyclopropylpyridin-4-yl)-5,6,7,8-tetrahydro-[1,2,4]triazolo[1,5-a]pyridin-8-yl)-1-methyl-3-(trifluoromethyl)-1H-pyrazole-5-carboxamide] | < 250
26 | O=C(N[C@H]1CCCn2nc(-c3cc(C(F)(F)F)ncc3F)cc21)c1cnc(C(F)(F)F)cn1 [Compound I-202a, (S)-N-(2-(5-Fluoro-2-(trifluoromethyl)pyridin-4-yl)-4,5,6,7-tetrahydropyrazolo[1,5-a]pyridin-4-yl)-5-(trifluoromethyl)pyrazine-2-carboxamide] | < 250
27 | Cn1nc(C(F)(F)F)nc1C(=O)N[C@H]1CCCn2nc(-c3cc(C(F)(F)F)ncc3F)cc21 [Compound I-203a, (S)-N-(2-(5-Fluoro-2-(trifluoromethyl)pyridin-4-yl)-4,5,6,7-tetrahydropyrazolo[1,5-a]pyridin-4-yl)-1-methyl-3-(trifluoromethyl)-1H-1,2,4-triazole-5-carboxamide] | < 250
28 | O=C(N[C@H]1CCCn2nc(-c3cc(C(F)(F)F)ncc3F)cc21)c1cncc(C(F)(F)F)n1 [Compound I-204a, (S)-N-(2-(5-Fluoro-2-(trifluoromethyl)pyridin-4-yl)-4,5,6,7-tetrahydropyrazolo[1,5-a]pyridin-4-yl)-6-(trifluoromethyl)pyrazine-2-carboxamide] | < 250
29 | Cn1nc(C(F)(F)F)nc1C(=O)N[C@H]1CCn2nc(-c3ccnc(C4CC4)c3)cc21 [Compound I-205a, (S)-N-(2-(2-Cyclopropylpyridin-4-yl)-5,6-dihydro-4H-pyrrolo[1,2-b]pyrazol-4-yl)-1-methyl-3-(trifluoromethyl)-1H-1,2,4-triazole-5-carboxamide] | < 250
30 | Cc1nc(C(=O)N[C@H]2CCn3nc(-c4ccnc(C(C)(F)F)c4)cc32)n(C)n1 [Compound I-206a, (S)-N-(2-(2-(1,1-Difluoroethyl)pyridin-4-yl)-5,6-dihydro-4H-pyrrolo[1,2-b]pyrazol-4-yl)-1,3-dimethyl-1H-1,2,4-triazole-5-carboxamide] | > 1000
